Measurements published in patent publication US12357596B2, “Compounds for prevention and treatment of obesity and related disorders” (ABREXA PHARMACEUTICALS, INC., priority 2019, dated 2025).

Experiment: 28-day once-daily oral gavage toxicity study with 14-day recovery (body weight, food consumption, clinical and anatomic pathology)
Format: in vivo
Conditions: for Decrease of group mean food consumption compared to Group 1 controls: Days 21 to 28
Procedure: J147 or vehicle was administered once daily to Sprague-Dawley rats via oral gavage for 28 consecutive days at a daily dose of 0, 30, 100 or 300 mg/kg. J174 was prepared in a vehicle formulation comprising 5% ethanol, 5% DMSO and 90% corn oil (v/v/v). Certified rodent diet and water was available ad libitum. Groups 1-4 contained 10 animals/sex/group. Groups 1 (control) and 4 (high dose) also included an additional 5 animals/sex/group for use as recovery animals. The recovery animals were maintained on study for a 14-day postdosing recovery period. Animals in Groups 1-4 were monitored for morbidity and mortality, clinical signs, detailed clinical observations, body weight, food consumption, ophthalmologic parameters, neurobehavioral assessment consisting of a Functional Observational Battery (FOB) and a motor activity test, hematology, coagulation, serum chemistry, and urinalysis parameters. Postmortem assessment included necropsy, measurement of selected organ weights, and microscopic evaluation of a standard set of tissues. Plasma samples for bioanalysis were collected on Days 1 and 28 from satellite toxicokinetic animals in Groups 5 through 8. Animals in these groups were euthanized following the last blood sampling and carcasses were discarded without examination. The study protocol is shown below in Table 1.

[1] = male rats, 30 mg/kg/day, Day 14 → 21
[2] = male rats, 30 mg/kg/day, Day 21 → 28
[3] = male rats, 30 mg/kg/day, Day −1 → 7
[4] = male rats, 100 mg/kg/day, Day 7 → 14
[5] = male rats, 100 mg/kg/day, Day 14 → 21
[6] = male rats, 100 mg/kg/day, Day 21 → 28
[7] = male rats, 100 mg/kg/day, Day 28
[8] = male rats, 100 mg/kg/day, Day −1 → 7
[9] = male rats, 300 mg/kg/day, Day 7 → 14
[10] = male rats, 300 mg/kg/day, Day 14 → 21
[11] = male rats, 300 mg/kg/day, Day 21 → 28
[12] = male rats, 300 mg/kg/day, Day 28
[13] = male rats, 300 mg/kg/day, Day −1 → 7
[14] = rats, both sexes, 300 mg/kg/day
[15] = rats, both sexes, 100 and 300 mg/kg/day

SMILES: COc1cccc(/C=N/N(C(=O)C(F)(F)F)c2ccc(C)cc2C)c1 [J147]
- Mean Bodyweight Gain [1]: 39.61 g
- Mean Food Consumption [1]: 25.03
- Mean Bodyweight (male rats, 30 mg/kg/day, Day 21): 430.90 g
- Mean Bodyweight Gain [2]: 34.51 g
- Mean Food Consumption [2]: 25.13
- Mean Bodyweight (male rats, 30 mg/kg/day, Day 28): 465.41 g
- Mean Bodyweight (male rats, 30 mg/kg/day, Day −1 (pre-dose)): 285.27 g
- Mean Bodyweight Gain [3]: 53.64 g
- Mean Food Consumption [3]: 23.90
- Mean Bodyweight Gain (male rats, 30 mg/kg/day, Day −1 → 28): 180.14 g
- Mean Bodyweight (male rats, 30 mg/kg/day, Day −2 (pre-dose)): 278.60 g
- Mean Bodyweight (male rats, 100 mg/kg/day, Day 7): 335.34 g
- Mean Bodyweight Gain [4]: 41.14 d^2 g
- Mean Food Consumption [4]: 21.47 dd^2
- Mean Bodyweight (male rats, 100 mg/kg/day, Day 14): 376.48 g
- Mean Bodyweight Gain [5]: 33.50 g
- Mean Food Consumption [5]: 23.65
- Mean Bodyweight (male rats, 100 mg/kg/day, Day 21): 409.98 g
- Mean Bodyweight Gain [6]: 26.89 g
- Mean Food Consumption [6]: 23.73
- Decrease of group mean body weight compared to Group 1 controls [7]: 5.9%
- Mean Bodyweight [7]: 436.87 g
- Mean Bodyweight (male rats, 100 mg/kg/day, Day −1 (pre-dose)): 286.67 g
- Mean Bodyweight Gain [8]: 48.67 g
- Mean Food Consumption [8]: 23.68
- Mean Bodyweight Gain (male rats, 100 mg/kg/day, Day −1 → 28): 150.20 g
- Mean Bodyweight (male rats, 100 mg/kg/day, Day −2 (pre-dose)): 278.57 g
- Decrease of group mean food consumption compared to Group 1 controls (male rats, 100 mg/kg/day): 4.9%
- Levels of urinary ketones (male rats, 300 mg/kg/day): increased
- Mean Food Consumption (male rats, 300 mg/kg/day for 28 days, Day 28 → 35 (recovery)): 26.98
- Mean Bodyweight Gain (male rats, 300 mg/kg/day for 28 days, Day 28 → 42 (recovery)): 50.60 g
- Mean Bodyweight (male rats, 300 mg/kg/day for 28 days, Day 35 (recovery)): 415.68 dd^3 g
- Mean Food Consumption (male rats, 300 mg/kg/day for 28 days, Day 35 → 42 (recovery)): 28.99
- Mean Bodyweight (male rats, 300 mg/kg/day for 28 days, Day 42 (recovery)): 446.14 d^4 g
- Mean Bodyweight (male rats, 300 mg/kg/day, Day 7): 321.93 dd^2 g
- Mean Bodyweight Gain [9]: 28.89 dd^3 g
- Mean Food Consumption [9]: 20.24 dd^2
- Mean Bodyweight (male rats, 300 mg/kg/day, Day 14): 350.83 dd^2 g
- Mean Bodyweight Gain [10]: 21.21 dd^3 g
- Mean Food Consumption [10]: 21.50 dd^2
- Mean Bodyweight (male rats, 300 mg/kg/day, Day 21): 372.04 dd^2 g
- Mean Bodyweight Gain [11]: 16.71 dd^3 g
- Mean Food Consumption [11]: 20.78 dd^2
- Decrease of group mean body weight compared to Group 1 controls [12]: 16.2%
- Mean Bodyweight [12]: 388.75 dd^2 g
- Mean Bodyweight (male rats, 300 mg/kg/day, Day −1 (pre-dose)): 287.50 g
- Mean Bodyweight Gain [13]: 34.43 dd^3 g
- Mean Food Consumption [13]: 19.83 dd^2
- Mean Bodyweight Gain (male rats, 300 mg/kg/day, Day −1 → 28): 101.25 dd^3 g
- Mean Bodyweight (male rats, 300 mg/kg/day, Day −2 (pre-dose)): 278.97 g
- Decrease of group mean food consumption compared to Group 1 controls (male rats, 300 mg/kg/day): 16.7%
- Mean serum triglyceride concentrations (male rats, 100 and 300 mg/kg/day): Decreased
- Group mean weight gain from Day −1 to 28 (male rats, Group 2 (30 mg/kg/day)): 180 grams
- Group mean weight gain from Day −1 to 28 (male rats, Group 3 (100 mg/kg/day)): 150 grams
- Group mean weight gain from Day −1 to 28 (male rats, Group 4 (300 mg/kg/day)): 101 grams
- Effects on serum triglyceride concentrations and red cell mass at the end of the 14-day recovery period (rats previously administered 300 mg/kg/day for 28 days): persisted
- Alterations considered related to test article administration (rats, 30 mg/kg/day): no alterations
- Organ weight, macroscopic or microscopic findings after recovery (rats, 300 mg/kg/day, Day 43 following 2-week treatment-free recovery): no J147-related organ weight, macroscopic or microscopic findings
- Recovery of body weight and body weight gain (rats, 14-day recovery period): Full recovery
- Motor activity portion of the Functional Observational Battery (FOB) (rats, Day 1, males at all dose levels, females at 100 and 300 mg/kg/day, not considered adverse): general decrease in activity
- Subacute perivascular inflammation in the liver (microscopic) [14]: noted
- Thymic lymphoid depletion [14]: noted
- lowest-observed-adverse-effect-level (LOAEL) (rats, both sexes, 28-day oral gavage): 100 mg/kg/day
- Body weight, body weight gain, and food consumption [15]: decreased
- Food consumption compared to Group 1 controls [15]: decreased
- Group mean thymus weights [15]: Decreases
- Hepatocellular hypertrophy (microscopic) [15]: seen
- Prothrombin time (rats, both sexes, all dose levels): decreased
- Mean platelet and reticulocyte counts (rats, end of 28-day treatment, all dose levels, both sexes): increased
- Mean red blood cell counts, hematocrit, and hemoglobin values (rats, end of 28-day treatment, males at all dose levels, females at 100 and 300 mg/kg/day): decreased
- Terminal necropsy findings (rats, one or two animals at 300 mg/kg/day): enlarged liver and small thymus
- J147-related effects on body weight and food consumption following cessation of treatment (rats, recovery period): reversible
- Noteworthy clinical observations during the 28-day treatment period (rats, some animals of both sexes, 300 mg/kg/day): soft feces
- Incidence of single cell necrosis of acinar cells in the pancreas (rats, both sexes at 300 mg/kg/day, males at 100 mg/kg/day): increased
- Mean serum glucose concentrations (rats, males at 100 mg/kg/day, both sexes at 300 mg/kg/day): Decreased
- Group mean liver weights (rats, males at all dose levels, females at 100 and 300 mg/kg/day): increased
